Where two headings read alike, the source gives them in different places.
How the values were obtained:
C-57 mice = assay: Conditioned avoidance response (CAR) model; format: in vivo; details: models unwanted side effects
Source text: The Condition Avoidance Responding (CAR, active avoidance) model is a measure of cognitive and attention impairment. It evaluates the disruption of avoidance (increased latency) without disruption of escape (extrapyramidal motor function).
The training of C-57 mice consists of 20 trials with variable inter-trial intervals (trained to 80% Avoidance Criteria). After a one-minute acclimation period, the house light and an acoustic 90 decibel tone (conditioned stimuli) are presented. A response (crossing to dark compartment) within 5 seconds ends the trial and trial is recorded as avoidance response (CAR). […] To avoid shock, animals learn to move from the lighted side of the − chamber to the dark side when the cue is presented (avoidance) or moved when the shock is administered (escape). Compounds that disrupt cognition in the CAR model can be excluded from candidate consideration.
(§1) The present compounds were tested in the conditioned avoidance response (CAR) model and in the Spontaneous Activity model described above.

Male C57 mice = assay: PCP-induced disruption of prepulse inhibition (PPI) of the startle response; format: in vivo; details: for minimal effective dose: Mus musculus, 20 minutes prior to PCP 5 mg/kg IP, read-out: Effective Dose, Prepulse Inhibition Testing; for minimum effective dose, Prepulse Inhibition (PPI): reversal of PCP-induced disruption, route not given
Source text: The phencyclidine (PCP)-induced disruption of pre-pulse inhibition (PPI) has been used to predict efficacy in cognitive impairment and other disorders. In this test, a weaker auditory prestimulus (prepulse) inhibits the reaction of an test organism to a subsequent strong startle stimulus (pulse). Normal PPI functioning in mammals is critical in filtering out irrelevant sensory information, an inhibitory process that is affected in patients with PTSD. A reduction of the cognitive/attention impairment produced in the PPI model can be used as an efficacy measure for compound candidate selection.
For testing of PPI, male C57 mice can be assigned to five dose groups of eight animals per group, and vehicle or test compound can then be administered orally (PO) or subcutaneously (SC) 20 minutes prior to intraperitoneal (IP) administration of vehicle or PCP (5 mg/kg). Ten minutes following PCP administration, the mice are placed into Hamilton-Kinder startle chambers and evaluation of pre-pulse inhibition procedure is performed. Following a five-minute acclimatization period with background white noise (65 decibels), mice were exposed to five different trial types. Trials were presented […] in a quasi-random order, with randomized 5 to 25 second inter-trial intervals. Trials were: stimulus only trial (120 decibel white noise, 50 ms stimulus); two different prepulse+pulse trials in which a 20 ms 5 decibel, or 10 decibel stimuli above a 65 decibel background preceded the 120 decibel pulse by 120 ms; a 10 decibel prepulse without a 120 decibel pulse; and a no stimulus trial, in which only the background noise was presented.
Compounds which are observed to reduce and/or reverse PCP-induced impairment can be selected as candidates for further evaluation. Such reduction is also indicative of memory enhancement, which is also a positive indicator for further development.
Male C57 mice were assigned to five dose groups of eight animals per group, and vehicle or a test compound was administered orally or subcutaneously 20 minutes prior to intraperitoneal administration of vehicle or PCP (5 mg/kg). Ten minutes following PCP administration, the mice were placed into Kinder Scientific startle chambers (Kinder Scientific, Poway, Calif.) and pre-pulse inhibition was evaluated. Following a five-minute acclimatization period with background white noise (65 dB), mice were exposed to five different trial types. Trials were presented in a quasi-random order, with randomized 5 to 25 second inter-trial intervals. The five different trials (presented 10 times each were): stimulus only trial (120 dB white noise, 50 ms stimulus); two different prepulse+pulse trials in which a 20 ms 5 dB or 10 dB stimulus above a 65 dB background preceded the 120 dB pulse by 120 ms; a 10 dB prepulse without a 120 dB pulse; and a no stimulus trial, in which only the background noise was presented.

mice = assay: Spontaneous Activity model (locomotor activity); format: in vivo; details: models unwanted side effects
Source text: Ambulatory and non-ambulatory activity can be used to test spontaneous and drug-induced motor activity. The test can be used to profile the potential for a drug to induce hyperactivity or sedation.
In this model, Kinder Scientific photobeam activity monitors are used to record the ambulatory and non-ambulatory motor activity. The monitors track the photobeam breaks made by the animal that are used to calculate the number of ambulatory and fine (non-ambulatory) motor movements. A drug-induced increase in activity can indicate the potential for an adverse event such as hyperactivity. A drug-induced decrease in response can indicate the potential for an adverse event such as sedation. Doses at which no significant change in activity are recorded, and more preferably at which no change in activity are recorded, can be selected for further evaluation.
as §1

patients = details: placebo 37 percent, cited from earlier work

Compound | minimum effective dose, Conditioned Avoidance Response (C-57 mice) [mg/kg] | minimal effective dose (Male C57 mice; sc, subcutaneous) [mg/kg] | minimum effective dose, Prepulse Inhibition (PPI) (Male C57 mice) [mg/kg] | minimum effective dose, Locomotor Activity (mice) [mg/kg] | minimal effective dose (Male C57 mice; oral) [mg/kg] | patients who responded positively (patients; 20 mg paroxetine) [%] | patients who responded positively (patients; 40 mg paroxetine) [%]
O=C1CCCc2c1ccn2CCCCN1CCN(c2ccc(F)cc2)CC1 [Compound B, 1-{4-[4-(4-Fluorophenyl)piperazin-1-yl]butyl}-1,5,6,7-tetrahydroindol-4-one] | >3 | 1 | 1 | 3 |  |  | 
O=C1CCCc2c1ccn2CCCCN1CCN(c2ccc(Br)cc2)CC1 [Compound C, 1-{4-[4-(4-Bromophenyl)piperazin-1-yl]butyl}-1,5,6,7-tetrahydroindol-4-one] | >10 | 3 | 3 | >10 |  |  | 
O=C1CCCc2c1ccn2CCCCN1CCN(c2cccc(C(F)(F)F)c2)CC1 [Compound D, 1-{4-[4-(3-Trifluoromethylphenyl)piperazin-1-yl]butyl}-1,5,6,7-tetrahydroindol-4-one] | 3 | 0.3 | 0.3 | 3 | 1 |  | 
O=C1CCCc2c1ccn2CCN1CCN(c2cccc(C(F)(F)F)c2)CC1 [Compound E, 1-{2-[4-(3-Trifluoromethylphenyl)piperazin-1-yl]ethyl}-1,5,6,7-tetrahydroindol-4-one] | >10 |  | 3 | >10 |  |  | 
O=C1CCCc2c1ccn2CCCN1CCN(c2cccc(Cl)c2)CC1 [Compound F, 1-{3-[4-(3-Chlorophenyl)piperazin-1-yl]propyl}-1,5,6,7-tetrahydroindol-4-one] | >10 |  | 3 | >3 |  |  | 
O=C1CCCc2c1ccn2CCCN1CCN(c2cccc(C(F)(F)F)c2)CC1 [Compound G, 1-{3-[4-(3-Trifluoromethylphenyl)piperazin-1-yl]propyl}-1,5,6,7-tetrahydroindol-4-one] | >10 |  | 3 | >10 |  |  | 
O=C1CCCc2c1ccn2CCCCN1CCN(c2ccc(Cl)c(Cl)c2)CC1 [Compound H, 1-{4-[4-(3,4-dichlorophenyl)piperazin-1-yl]butyl}-1,5,6,7-tetrahydroindol-4-one] |  | 1 |  |  | 6 |  | 
O=C1CCCc2c1ccn2CCCCN1CCN(c2ccc(F)c(Cl)c2)CC1 [Compound I, 1-{4-[4-(3-Chloro-4-fluorophenyl)piperazin-1-yl]butyl}-1,5,6,7-tetrahydroindol-4-one] |  | 1 |  |  |  |  | 
O=C1CCCc2c1ccn2CCCCN1CCN(c2ccc(Cl)cc2Cl)CC1 [Compound J, 1-{4-[4-(2,4-Dichlorophenyl)piperazin-1-yl]butyl}-1,5,6,7-tetrahydroindol-4-one] |  | 10 |  |  |  |  | 
O=C1CCCc2c1ccn2CCCN1CCN(c2ccc(Cl)c(Cl)c2)CC1 [Compound K, 1-{3-[4-(3,4-Dichlorophenyl)piperazin-1-yl]propyl}-1,5,6,7-tetrahydroindol-4-one] |  | 10 |  |  |  |  | 
Fc1ccc([C@@H]2CCNC[C@H]2COc2ccc3c(c2)OCO3)cc1 [paroxetine, Paroxetine] |  |  |  |  |  | 62 | 54

Reference: patent US20090156609A1, “TREATMENT OF POST-TRAUMATIC STRESS DISORDER WITH TETRAHYDROINDOLONE ARYLPIPERZAINE COMPOUNDS” (priority 2007, published 2009)
